In article PMC3047509 (Journal of the American Chemical Society, 2011):
Bridge positions count the residues as written; N and C are the ends. Peptide text beside a SMILES is read from it.

Tests used:
CBP BRD = CBP BRD (Homo sapiens, UniProt Q92793); test: competition fluorescent polarization; assay type: binding; details: FP competition assay; relative to linear p53-K382ac
[1] = tested on: p53-induced p21 activation; test: p53-based p21-luciferase assay; assay type: cell-based, human; details: HCT116 cells, doxorubicin treatment
[2] = tested on: endogenous p53 and p21 proteins in HCT116 cells; test: western blot of endogenous p53 and p21 after doxorubicin; assay type: cell-based, human; details: peptide 12 hours, then doxorubicin 300 ng/ml for 24 hrs

CBP BRD, sequence (Q92793 1085-1192 limits assumed): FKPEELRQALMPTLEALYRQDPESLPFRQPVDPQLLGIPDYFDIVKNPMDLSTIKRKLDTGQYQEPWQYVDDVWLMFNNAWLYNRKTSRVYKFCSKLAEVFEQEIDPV

Row | SMILES | fold increase in binding affinity over linear p53-K382ac peptide (CBP BRD) | inhibition of p53-induced p21 luciferase activation [1] | protein level of endogenous p53 and p21 [2]
1 | CC(=O)NCCCC[C@@H]1NC(=O)[C@H](CCCCN)NC(=O)[C@H](Cc2c[nH]cn2)NC(=O)[C@@H](N)CSSC[C@@H](C(=O)N[C@@H](Cc2ccccc2)C(=O)N[C@@H](CCCCN)C(N)=O)NC(=O)[C@H](CC(C)C)NC1=O [compound 1] (H-CHKK(Ac)LCFK-NH2; disulfide 1-6; N-terminus and C-terminus assumed) | 9 fold |  | 
2 | CC(=O)NCCCC[C@@H]1NC(=O)[C@H](CCCCN)NC(=O)[C@H](Cc2c[nH]c3ccccc23)NC(=O)[C@@H](N)CSSC[C@@H](C(=O)N[C@@H](Cc2ccccc2)C(=O)N[C@@H](CCCCN)C(N)=O)NC(=O)[C@H](CC(C)C)NC1=O [compound 4] (H-CWKK(Ac)LCFK-NH2; disulfide 1-6; N-terminus and C-terminus assumed) | 24 fold | dose-dependent inhibition | effectively reduced the protein level of endogenous p53 and p21
